According to patent publication US12077503B2, “Substituted cyclic amides and their use as herbicides” (FMC CORPORATION, priority 2015, dated 2024):

Columns and labels:
Format in all cases: in vivo
Kochia (Kochia scoparia) [1] = experiment: Test A preemergence; details: for Plant response rating, Kochia: 125 g ai/ha; for Kochia plant response rating (0 to 100 scale, 0 is no effect, 100 is complete control): 500 g ai/ha, visual injury approx. 10 d
Outline: (§1)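 Greenhouse, ~10 d after spray; visual injury vs untreated controls, 0 = no effect, 100 = complete control. Preemergence: directed soil spray over planted seeds. Postemergence: plants 2–10 cm, 1–2 leaf stage. Loam/sand blend. Compound in non-phytotoxic solvent with surfactant.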

[2] = tested on: barnyardgrass (Echinochloa crus-galli); experiment: Test A preemergence; details: for Plant response rating, Barnyardgrass: 125 g ai/ha; for Barnyardgrass plant response rating (0 to 100 scale, 0 is no effect, 100 is complete control): 500 g ai/ha, visual injury approx. 10 d
Outline: as §1

[3] = tested on: giant foxtail (Setaria faberii); experiment: Test A preemergence; details: for Plant response rating, Foxtail, Giant: 125 g ai/ha; for Foxtail, Giant plant response rating (0 to 100 scale, 0 is no effect, 100 is complete control): 500 g ai/ha, visual injury approx. 10 d
Outline: as §1

[4] = tested on: pigweed (Amaranthus retroflexus); experiment: Test A preemergence; details: for Plant response rating, Pigweed: 125 g ai/ha; for Pigweed plant response rating (0 to 100 scale, 0 is no effect, 100 is complete control): 500 g ai/ha, visual injury approx. 10 d
[5] = tested on: ragweed (common ragweed, Ambrosia elatior); experiment: Test A preemergence; details: for Plant response rating, Ragweed: 125 g ai/ha; for Ragweed plant response rating (0 to 100 scale, 0 is no effect, 100 is complete control): 500 g ai/ha, visual injury approx. 10 d
Outline: as §1

[6] = tested on: ryegrass, Italian (Italian ryegrass, Lolium multiflorum); experiment: Test A preemergence; details: for Plant response rating, Ryegrass, Italian: 125 g ai/ha; for Ryegrass, Italian plant response rating (0 to 100 scale, 0 is no effect, 100 is complete control): 500 g ai/ha, visual injury approx. 10 d
Outline: as §1

[7] = tested on: Galium (catchweed bedstraw, Galium aparine); experiment: Test A postemergence
Outline: as §1

Kochia (Kochia scoparia) [8] = experiment: Test A postemergence
Outline: as §1

[9] = tested on: barnyardgrass (Echinochloa crus-galli); experiment: Test A postemergence; details: for Barnyardgrass plant response rating: 125 g ai/ha, visual injury rating on 0 to 100 scale (0 no effect, 100 complete control), approx. 10 d; for Plant response rating, Barnyardgrass: 500 g ai/ha
Outline: as §1

[10] = tested on: blackgrass (Alopecurus myosuroides); experiment: Test A postemergence; details: for Blackgrass plant response rating: 125 g ai/ha, visual injury rating on 0 to 100 scale (0 no effect, 100 complete control), approx. 10 d; for Plant response rating, Blackgrass: 500 g ai/ha
Outline: as §1

corn (Zea mays) = experiment: Test A postemergence
Outline: as §1

[11] = tested on: giant foxtail (Setaria faberii); experiment: Test A postemergence
Outline: as §1

[12] = tested on: pigweed (Amaranthus retroflexus); experiment: Test A postemergence
Outline: as §1

[13] = tested on: ragweed (common ragweed, Ambrosia elatior); experiment: Test A postemergence
Outline: as §1

[14] = tested on: ryegrass, Italian (Italian ryegrass, Lolium multiflorum); experiment: Test A postemergence
Outline: as §1

[15] = tested on: wheat (Triticum aestivum); experiment: Test A postemergence
Outline: as §1

[16] = tested on: barnyardgrass (Echinochloa crus-galli); experiment: Test B flooded paddy test; details: Flood, 0 to 100 scale where 0 is no effect and 100 is complete control, 13 to 15 d
Outline: (§2)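 Plants at 2-leaf stage flooded to 3 cm above soil, with compounds applied directly to paddy water and that depth maintained. Plants kept in greenhouse 13–15 d. Visual rating versus controls on a 0 (no effect) to 100 (complete control) scale.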

[17] = tested on: ducksalad (Heteranthera limosa); experiment: Test B flooded paddy test; details: Flood, 0 to 100 scale where 0 is no effect and 100 is complete control, 13 to 15 d
Outline: as §2

rice (Oryra sativa) = experiment: Test B flooded paddy test; details: Flood, 0 to 100 scale where 0 is no effect and 100 is complete control, 13 to 15 d
Outline: as §2

[18] = tested on: sedge, umbrella (small-flower umbrella sedge, Cyperus difformis); experiment: Test B flooded paddy test; details: Flood, 0 to 100 scale where 0 is no effect and 100 is complete control, 13 to 15 d
Outline: as §2

[19] = preemergence, 0 to 100 scale (0 no effect, 100 complete control)
[20] = 125 g ai/ha, postemergence, visual injury rating on 0 to 100 scale (0 no effect, 100 complete control), approx. 10 d
[21] = 500 g ai/ha, postemergence, 0 to 100 scale, 0 no effect, 100 complete control
[22] = postemergence, 0 to 100 scale, 0 no effect, 100 complete control
[23] = Preemergence, visual injury after approximately 10 d, 0 to 100 scale where 0 is no effect and 100 is complete control
[24] = 125 g ai/ha, postemergence, visual rating after approx. 10 d, 0 to 100 scale (0 no effect, 100 complete control)
[25] = Postemergence, 500 g ai/ha, 0 to 100 scale where 0 is no effect and 100 is complete control
[26] = Postemergence, 0 to 100 scale where 0 is no effect and 100 is complete control

CN1CC(c2ccc(Cl)cc2)C(C(=O)Nc2ccccc2F)C1=O (stereo not drawn) [Compound 433]
Plant response rating, Kochia (Kochia (Kochia scoparia) [1]; [19]): 70 | Kochia plant response rating (0 to 100 scale, 0 is no effect, 100 is complete control) (Kochia (Kochia scoparia) [1]; Preemergence): 80 | Plant response rating, Barnyardgrass [2, 19]: 90 | Barnyardgrass plant response rating (0 to 100 scale, 0 is no effect, 100 is complete control) ([2]; Preemergence): 90 | Plant response rating, Foxtail, Giant [3, 19]: 90 | Foxtail, Giant plant response rating (0 to 100 scale, 0 is no effect, 100 is complete control) ([3]; Preemergence): 90 | Plant response rating, Pigweed [4, 19]: 20 | Pigweed plant response rating (0 to 100 scale, 0 is no effect, 100 is complete control) ([4]; Preemergence): 70 | Plant response rating, Ragweed [5, 19]: 70 | Ragweed plant response rating (0 to 100 scale, 0 is no effect, 100 is complete control) ([5]; Preemergence): 60 | Plant response rating, Ryegrass, Italian [6, 19]: 20 | Ryegrass, Italian plant response rating (0 to 100 scale, 0 is no effect, 100 is complete control) ([6]; Preemergence): 60 | Galium plant response rating [7, 20]: 50 | Plant response rating, Galium [7, 21]: 50 | Kochia plant response rating (Kochia (Kochia scoparia) [8]; [20]): 40 | Plant response rating, Kochia (Kochia (Kochia scoparia) [8]; [21]): 50 | Barnyardgrass plant response rating ([9]; postemergence): 90 | Plant response rating, Barnyardgrass [9, 22]: 90 | Blackgrass plant response rating ([10]; postemergence): 30 | Plant response rating, Blackgrass [10, 22]: 40 | Corn plant response rating (corn (Zea mays); [20]): 0 | Plant response rating, Corn (corn (Zea mays); [21]): 30 | Foxtail, Giant plant response rating [11, 20]: 80 | Plant response rating, Foxtail, Giant [11, 21]: 80 | Pigweed plant response rating [12, 20]: 20 | Plant response rating, Pigweed [12, 21]: 20 | Ragweed plant response rating [13, 20]: 0 | Plant response rating, Ragweed [13, 21]: 50 | Ryegrass, Italian plant response rating [14, 20]: 30 | Plant response rating, Ryegrass, Italian [14, 21]: 60 | Wheat plant response rating [15, 20]: 30 | Plant response rating, Wheat [15, 21]: 60 | Plant response rating, Barnyardgrass ([16]; 250 g ai/ha): 70 | Plant response rating, Ducksalad ([17]; 250 g ai/ha): 98 | Plant response rating, Rice (rice (Oryra sativa); 250 g ai/ha): 0 | Plant response rating, Sedge, Umbrella ([18]; 250 g ai/ha): 0

O=C1NCC(c2ccc(Oc3ccccc3)cc2)C1C(=O)Nc1cccc(F)c1F (racemic) [Compound 536]
Plant response rating, Kochia (Kochia (Kochia scoparia) [1]; [23]): 0 | Kochia plant response rating (0 to 100 scale, 0 is no effect, 100 is complete control) (Kochia (Kochia scoparia) [1]; Preemergence): 0 | Plant response rating, Barnyardgrass [2, 23]: 0 | Barnyardgrass plant response rating (0 to 100 scale, 0 is no effect, 100 is complete control) ([2]; Preemergence): 0 | Plant response rating, Foxtail, Giant [3, 23]: 0 | Foxtail, Giant plant response rating (0 to 100 scale, 0 is no effect, 100 is complete control) ([3]; Preemergence): 20 | Plant response rating, Pigweed [4, 23]: 0 | Pigweed plant response rating (0 to 100 scale, 0 is no effect, 100 is complete control) ([4]; Preemergence): 0 | Plant response rating, Ragweed [5, 23]: 0 | Ragweed plant response rating (0 to 100 scale, 0 is no effect, 100 is complete control) ([5]; Preemergence): 0 | Plant response rating, Ryegrass, Italian [6, 23]: 0 | Ryegrass, Italian plant response rating (0 to 100 scale, 0 is no effect, 100 is complete control) ([6]; Preemergence): 0 | Plant response rating, Galium [7, 24]: 0 | Plant response rating, Galium [7, 25]: 0 | Plant response rating, Kochia (Kochia (Kochia scoparia) [8]; [24]): 0 | Plant response rating, Kochia (Kochia (Kochia scoparia) [8]; [25]): 0 | Barnyardgrass plant response rating ([9]; postemergence): 0 | Plant response rating, Barnyardgrass [9, 26]: 0 | Blackgrass plant response rating ([10]; postemergence): 0 | Plant response rating, Blackgrass [10, 26]: 0 | Plant response rating, Corn (corn (Zea mays); [24]): 0 | Plant response rating, Corn (corn (Zea mays); [25]): 0 | Plant response rating, Foxtail, Giant [11, 24]: 0 | Plant response rating, Foxtail, Giant [11, 25]: 30 | Plant response rating, Pigweed [12, 24]: 0 | Plant response rating, Pigweed [12, 25]: 0 | Plant response rating, Ragweed [13, 24]: 0 | Plant response rating, Ragweed [13, 25]: 0 | Plant response rating, Ryegrass, Italian [14, 24]: 0 | Plant response rating, Ryegrass, Italian [14, 25]: 0 | Plant response rating, Wheat [15, 24]: 0 | Plant response rating, Wheat [15, 25]: 0 | Plant response rating, Barnyardgrass ([16]; 500 g ai/ha): 30 | Plant response rating, Ducksalad ([17]; 500 g ai/ha): 0 | Plant response rating, Rice (rice (Oryra sativa); 500 g ai/ha): 15 | Plant response rating, Sedge, Umbrella ([18]; 500 g ai/ha): 0
